Measured values published in US4681887A, “Pharmaceutical compositions with a neuroleptic action and process for preparing same” (Richter Gedeon Vegyeszeti Gyar Rt., priority 1985, dated 1987).
pIC50: −log10 of the molar value.

How the values were obtained:
apomorphine hypothermia = experiment: Investigation of the apomorphine hypothermia-reverting effect; type: in vivo, Hannover Wistar rats; conditions: rats, 10 mg/kg p.o., apomorphine 5 mg/kg i.p.
Experimental: (§1) The neuroleptic effect of the compounds was shown by investigations on the central nervous system of Hannover Wistar rats and CFLP mice. The compounds to be tested were orally administered in a dose of 5 ml/kg of body-weight to rats or in a dose of 10 ml/kg of body-weight to mice, respectively at 60 minutes before beginning the experiment.
(§2) The compounds to be tested were suspended in TWEEN 80 and diluted to the desired concentration by adding physiological saline solution.
(§3) The results are expressed either as percentages, or ED50 values calculated by using the probit analysis are given together with the 95% fiducial (confidential) limits (J. T. Litchfield and F. Wilcoxon: J. Pharmacol. 96, 99 (1949)).
The method of A. Barnett et al. (Arch. Int. Pharmacodyn. Ther. 198, 242 (1972)) was used for this study.
The rectal temperature of rats (n=5) was determined by using an Ellab thermometer (E3) before administering the substances to be tested in a dose of 10 mg/kg. Thereafter, 5 mg/kg of apomorphine were intraperitoneally given and the temperature of the animals was hourly registered for 3 hours.

α1-adrenergic receptor = α1-adrenergic receptor binding (3H-prazosine, rat cortex); set-up: species or system Hannover Wistar rats; conditions: for pIC50: 3H-prazosine, rat cortex, 23° C., 30 minutes; for side-effect on the α1 receptors relative to chloropromazine: from IC50 on α1 receptors
Experimental: Hannover Wistar rats were decapitated, their cortex were prepared and homogenized in a 20-fold volume of a buffer solution (50 mmoles of TRIS HCl, at pH 8). The membrane was centrifuged at 45000 g twice for 15 minutes and then suspended in the buffer in a concentration of 30 ml/g (in a protein concentration of 1.7 to 1.8 mg/ml).
After an incubation at 23° C. for 30 minutes, the samples were filtered through a Whatman GF/B filter and washed 4 times with 4 ml of buffer solution each.
For the determination of the non-specific binding, 10 μmoles of phentolamine were used.
(§4) On using both above-mentioned receptor binding methods, a scintillation solution was applied onto the filter paper in the cuvet and the isotopic radioactivity was measured on the next day.

[1] = test system: hypermotility induced by L-Dopa; experiment: Inhibition of the hypermotility induced by L-Dopa; type: in vivo, CFLP mice; conditions: mice, 30 mg/kg p.o., nialamide 40 mg/kg and L-Dopa 100 mg/kg i.p., difference from control
Experimental: as §1, §2, §3
The method of N. P. Plotnikoff et al. ("The Thyroid Axis, Drugs and Behavior", Raven Press, N.Y., pp. 103-113 (1974)) was used for this study.
Male mice (n=15) weighing 18 to 21 g were intraperitoneally treated with 40 mg/kg of nialamide and after 60 minutes, the substances to be tested were administered in a dose of 30 mg/kg. Thirty minutes later, 100 mg/kg of L-Dopa were intraperitoneally administered. The locomotor activity of the animals was measured by using an LKB Animex DSE motimeter in each 30th minute for 2 hours. The results are given as the percentage of the difference from the control.

D-2 receptors = biological target: T1, D-2 receptors (Rattus norvegicus, UniProt P61169); experiment: D-2 receptor binding (3H-spiroperidol, rat striatum); set-up: species or system Hannover Wistar rats; conditions: for D-2/α1 Selectivity ratio: ratio of IC50 D-2 to IC50 α1
T1 construct: Hannover Wistar rats were decapitated and the striatum from their cortex was prepared; from tissue; host or cells: striatum membranes of Hannover Wistar rats
Experimental: Hannover Wistar rats were decapitated and the striatum from their cortex was prepared. The striata were homogenized in a 10-fold volume of a cold buffer solution (50 mmoles of TRIS HCl, 120 mmoles of NaCl, 2 mmoles of KCl, 1 mmoles of MgCl2 and 5 mmoles of CaCl2, at pH 7.4) and centrifuged at 40000 g for 15 minutes. The thus-obtained sediment was suspended in the buffer in a concentration of 100 ml/g (in a protein concentration of 0.7 to 0.8 mg/ml).
After an incubation at 37° C. for 15 minutes, the samples were filtered through a Whatman GF/B filter and washed 2 times with 5 ml of buffer solution each.
For the determination of the non-specific binding, 1 μmole of (+)-butaclamol was used.
as §4

[2] = test system: conditioned avoidance response; experiment: Inhibition of the conditioned avoidance response (CAR inhibition); type: in vivo, Hannover Wistar rats; conditions: Rattus norvegicus, po, 1 h; rats, p.o., 60 minutes before experiment
Experimental: as §1, §2, §3
Male rats weighing 140 to 160 g were conditioned for 10 days in an automated six-channel shuttle box (D. Bovet et. al.: Neuropsychopharmacology, Vol. 2., p. 142 Elsevier Publishing House, Amsterdam, 1961).
Each one session consisted of 6 cycles; the time of a partial cycle was: 15 seconds for intersignal time, 15 seconds for light stimulus, 10 seconds for light stimulus and footshock (0.8 mA). […]

[3] = test system: amphetamine group toxicity; experiment: Investigation of the amphetamine group toxicity; type: in vivo, CFLP mice; conditions: d-amphetamine 25 mg/kg i.p., 24 hours
Experimental: as §1, §2, §3
The method of C. D. Proctor et al. (Arch. Int. Pharmacodyn. Ther. 163, 74 (1966)) was used for this study.
The examination was carried out on mice of both sexes weighing 22 to 27 g (n=5). At the […], d-amphetamine in a dose of 25 mg/kg was intraperitoneally given to the animals tightly closed together (25 cm^2 /mouse) and the percentage of the perished animals was registered after 24 hours.

asphyxial anoxia = experiment: Investigation of the asphyxial anoxia; type: in vivo, CFLP mice; conditions: Mus musculus, po, 1 h; mice, survival time longer by 30% than control counted as protected
Experimental: as §1, §2, §3
The method of C. Caillard et al. (Life Sci. 16, 1607 (1975)) was used for this study.
Mice (n=5) of both sexes weighing 22 to 24 g were starved for 16 hours, then treated with 50 mg/kg dose of the substances to be tested. After 60 minutes, the animals were placed in tightly closed glass bottles of 100 ml volume and the survival time was registered.

catalepsy = experiment: Investigation of the cataleptogenic effect; type: in vivo, Hannover Wistar rats; conditions: Rattus norvegicus, po; rats, observed hourly for 5 hours
Experimental: as §1, §2, §3
The method of G. Stille and H. Launer Arzneim.-forsch. 21, 252 (1971) was used for this study.
Male rats weighing 90 to 110 g (n=5) were treated with different doses of the compounds to be tested, then the number of the animals showing catalepsy was hourly observed for 5 hours.

central dopaminergic = conditions: Acta Pharm. Suec. 1983, 111-119; cited from earlier work

T1 sequence (P61169 whole entry): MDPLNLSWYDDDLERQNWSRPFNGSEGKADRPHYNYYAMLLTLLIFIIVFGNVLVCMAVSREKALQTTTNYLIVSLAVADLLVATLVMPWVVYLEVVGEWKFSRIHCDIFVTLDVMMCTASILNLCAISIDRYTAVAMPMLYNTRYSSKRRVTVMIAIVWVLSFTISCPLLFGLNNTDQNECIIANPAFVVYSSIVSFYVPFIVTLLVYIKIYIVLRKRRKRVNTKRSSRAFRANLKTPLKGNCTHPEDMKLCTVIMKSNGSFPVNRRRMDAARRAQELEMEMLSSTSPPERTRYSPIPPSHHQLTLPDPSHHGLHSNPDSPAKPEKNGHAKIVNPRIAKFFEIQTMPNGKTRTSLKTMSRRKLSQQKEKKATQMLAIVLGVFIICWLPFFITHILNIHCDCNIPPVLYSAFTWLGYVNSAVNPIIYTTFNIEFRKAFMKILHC

CN1C[C@H](CO)C=C2c3cccc4[nH]c(Br)c(c34)C[C@H]21.O=C(O)/C=C\C(=O)O [2-Bromolysergol maleate]
Apomorphine hypothermia, difference of temperature change vs apomorphine (60 min.) (apomorphine hypothermia): +1.9 °C | Apomorphine hypothermia, difference of temperature change vs apomorphine (120 min.) (apomorphine hypothermia): +2.4 °C | pIC50 (α1-adrenergic receptor): 7.62 | L-Dopa induced hypermot. inhibition % (60 min.) [1]: -60% | L-Dopa induced hypermot. inhibition % (120 min.) [1]: -65% | pIC50 (D-2 receptors): 7.12 | D-2/α1 Selectivity ratio (D-2 receptors): 3.2 | ED50 [2]: 2.7 mg/kg | Amphetamine group tox., mice died (footnote *) ([3]; 20 mg/kg p.o.): 10% | ED50 (asphyxial anoxia): 35.6 mg/kg | ED50 (catalepsy): 10.8 mg/kg

CCN(CC)C(=O)NC1C=C2c3cccc4[nH]c(Br)c(c34)CC2N(C)C1 (stereo not drawn) [2-Bromolysuride, reference compound]
ED50 (catalepsy): 3.3 mg/kg

CN1C[C@H](CO)C=C2c3cccc4[nH]c(Cl)c(c34)C[C@H]21.O=C(O)/C=C\C(=O)O [2-Chlorolysergol maleate]
Apomorphine hypothermia, difference of temperature change vs apomorphine (60 min.) (apomorphine hypothermia): +0.9 °C | Apomorphine hypothermia, difference of temperature change vs apomorphine (120 min.) (apomorphine hypothermia): +1.1 °C | pIC50 (α1-adrenergic receptor): 7.34 | L-Dopa induced hypermot. inhibition % (60 min.) [1]: -47% | L-Dopa induced hypermot. inhibition % (120 min.) [1]: -50% | pIC50 (D-2 receptors): 8.28 | D-2/α1 Selectivity ratio (D-2 receptors): 0.12 | ED50 [2]: 3.4 mg/kg | ED50 ([3]; Mus musculus, po, mice, p.o., read-out: Amphetamine group tox. ED50): 28.9 mg/kg | ED50 (asphyxial anoxia): 39.8 mg/kg | ED50 (catalepsy): 13.6 mg/kg

CN1C[C@H](CO)C=C2c3cccc4[nH]c(Br)c(c34)C[C@H]21 [2-bromolysergol]
side-effect on the α1 receptors relative to chloropromazine (α1-adrenergic receptor): somewhat lower | central dopaminergic agonist activity (central dopaminergic): inactive

CN1C[C@H](CO)C=C2c3cccc4[nH]c(Cl)c(c34)C[C@H]21 [2-chlorolysergol]
side-effect on the α1 receptors relative to chloropromazine (α1-adrenergic receptor): one-third | D-2/α1 selectivity ratio relative to chloropromazine (D-2 receptors): ten times lower | dopaminergic (D-2) activity relative to chloropromazine (D-2 receptors; from IC50 on D-2 receptors): three times as high | central dopaminergic agonist activity (central dopaminergic): inactive

CN(C)CCCN1c2ccccc2Sc2ccc(Cl)cc21 [Chloropromazine, reference compound]
pIC50 (α1-adrenergic receptor): 7.80
